{"source": "patent US6200966A", "about": "“Compositions for inhibiting airway wall inflammation” (Amrad Operations Pty. Ltd., priority 1996, dated 2001)", "key": {"[1]": {"tested_on": "adherent monocytes", "assay": "Superoxide anion generation in adherent monocytes", "format": "cell-based, human"}, "[2]": {"tested_on": "human cultured airway smooth muscle cells", "assay": "Cell counting (increase in cell number)", "format": "cell-based", "settings": "FCS (1%) or bFGF (300 pM); 3 μM; 48 h", "description": "Human bronchial airway smooth muscle was obtained from macroscopically normal lung resection specimens from lung transplant donors or recipients provided by the Alfred Hospital (Melbourne). Cultures were prepared as previously described in detail (Tomlinson et al., 1994). […]\nThe progression of airway smooth muscle cells through the cell-cycle to mitosis was determined by measuring changes in cell number in experiments of analogous design to those used for DNA synthesis, except that the incubations with mitogen were continued for 48 hours. […] At the end of this period, a further 200 μl of PBS (20% FCS) was added to prevent cell lysis by trypsin and cells were counted directly in a haemocytometer.\nEach treatment in an individual experiment was carried out in quadruplicate for DNA and protein synthesis experiments. […] Results are presented as grouped data from multiple cultures and are expressed as mean ±S. E. of n cultures. The degree of increment was calculated by dividing the response of treated wells by that of the control wells on the same 24-well plate. The grouped data was analysed by paired t-test after normalisation by log transformation. […]"}, "[3]": {"tested_on": "vascular smooth muscle", "settings": "Goyache et al., 1995; cited from earlier work"}, "[4]": {"tested_on": "human cultured airway smooth muscle cells", "assay": "DNA synthesis: [3H]-thymidine incorporation", "format": "cell-based", "description": "Human bronchial airway smooth muscle was obtained from macroscopically normal lung resection specimens from lung transplant donors or recipients provided by the Alfred Hospital (Melbourne). Cultures were prepared as previously described in detail (Tomlinson et al., 1994). Briefly, the tissue was partially digested in Dulbecco's Modified Eagle's Medium (DMEM), [supplemented with 2 mM L-glutamine, 100 μg/ml streptomycin, 100 U/ml penicillin-G, 2 μg/ml amphotericin B, and 0.25% w/v bovine serum albumin (BSA)] containing 3 mg/ml collagenase for 30 minutes at 37° C. and approximately 0.5 g smooth muscle was further digested by a 2 hour incubation in 0.5 mg/ml elastase, followed by an 18 hour incubation in collagenase (3 mg/ml) at 37° C. Cell suspensions ere centrifuged (10 min, 100×g, 25° C.), washed three times in supplemented DMEM, resuspended in 25 ml DMEM containing 10% (v/v) heat-inactivated foetal calf serum (FCS), seeded into 25 cm^2 Falcon culture flasks and incubated (37° C., 5% CO2) for 7 to 10 days until monolayer confluence was reached. Cells were then harvested weekly by 10 min exposure to 0.5% trypsin, 1 mM EDTA and passaged at a 1:3 split ratio into 75 cm^2 Falcon culture flaskes. Cells at passage numbers 3 to 15 were used for experiments.\nCells were subcultured into 24-well plates at a 1:3 ratio and allowed to grow to monolayer confluency over a 72-96 hour period in an atmosphere of 5% CO2 in air at 37° C. The serum-containing medium was replaced with serum-free DMEM for a 24 hour period to produce growth arrest. In some experiments, the cells were pretreated with 2-methoxyestradiol 30 min before the addition of mitogen. The stimulant (mitogen) was added to the appropriate wells together with a supplement containing insulin, transferrin, and selenium (Monomed A, 1% v/v). Monomed A was added to provide progression factors which are essential for the mitogenic activity of growth factors such as thrombin, epidermal growth factor (EGF) and basic fibroblast growth factor (bFGF) (Stewart et al., 1995a). Mitogens and inhibitors were left in contact with cells from the time of addition until the end of the experiment, unless indicated otherwise. Cells were incubated for 24 hours (37° C., 5% CO2) before being pulsed with [^3 H]-thymidine (1 μCi/ml for four hours) to measure incorporation of radiolabel into newly synthesized DNA, according to out previous study (Stewart et al., 1995). Incorporation of radioactivity was determined by filtration at the end of the pulse-labelling period. The medium containing the radioactivity was aspirated and the cells were lysed by addition of 200 μl of 0.1M NaOH. The DNA was immobilised by filtration in a binding harvester (Packard Filtermate 196) on glass fibre filters (Packard, standard), which were then washed with 3×3 ml volumes of distilled water and a single 1 ml volume of 100% ethanol. The dried filters were counted in a Packard Topcount liquid scintillation counter. Protein synthesis rates were determined in experiments of analogous design to those described above, but [^3 H]-leucine replaced [^3 H]-thymidine in the pulsing incubation of 4 hours. Furthermore, in experiments to determine the effects of mitogens and 2-methoxyestradiol on the rate of protein synthesis, incubations with mitogen were carried out for a period of 48 hours. The longer duration of these experiments was required to allow sufficient time for cell division to occur.\nEach treatment in an individual experiment was carried out in quadruplicate for DNA and protein synthesis experiments. Each experiment was performed in at least three different cultures obtained from three different individuals. For cell counting, single incubations were carried out in three cultures. Results are presented as grouped data from multiple cultures and are expressed as mean ±S. E. of n cultures. The degree of increment was calculated by dividing the response of treated wells by that of the control wells on the same 24-well plate."}, "[5]": {"tested_on": "guinea-pig peritoneal macrophages", "assay": "Superoxide anion release in peritoneal macrophages", "format": "cell-based", "settings": "10 μM", "description": "Guinea-pig peritoneal macrophages were harvested and cultured according to out previous studies (Stewart & Phillips, 1989). Cells were incubated with stimuli including the chemotactic tripeptide, formyl methiony leucyl Phenylalanine (fMLP, 100 nM), Zymosan (400 μg/ml) or phorbol myristate acetate (PMA, 100 nM) for 30 min in the presence or absence of 2-methoxyestradiol (10 μM) added 15 min before the stimuli. […] All individual incubations were carried out in duplicate and experiments were carried out in macrophages from 5 guinea-pigs."}, "[6]": {"settings": "3 μM, thrombin, additional time points"}}, "note": "“Also recorded” adds a separate entry of the source."}
{"smiles": "COc1cc2c(cc1O)CC[C@@H]1[C@@H]2CC[C@]2(C)[C@@H](O)CC[C@@H]12", "note": "[2-methoxyestradiol, 1,3,5[10]-estratriene-2,3,17-triol 2-methylether]", "values": [{"measurement": "superoxide anion generation in adherent monocytes, PMA", "setting": "[1]; response to PMA", "value": "unaffected"}, {"measurement": "superoxide anion generation in adherent monocytes, zymosan", "setting": "[1]; zymosan-stimulated, 10 μM, at least some donors", "value": "markedly inhibited"}, {"measurement": "increase in cell number", "setting": "[2]", "value": "complete inhibition"}, {"measurement": "vascular smooth muscle relaxation", "setting": "[3]", "value": "relaxation of vascular smooth muscle"}, {"measurement": "DNA synthesis, addition at 18 hours or later after thrombin", "setting": "[4]; 3 μM, thrombin 0.3 U/ml", "value": "no effect"}, {"measurement": "time of addition after thrombin giving maximum inhibition", "setting": "[4]; 3 μM, thrombin 0.3 U/ml, first time-course", "value": 2, "unit": "h"}, {"measurement": "thrombin-stimulated DNA synthesis, addition up to 4 h after thrombin", "setting": "[4]; 3 μM, thrombin 0.3 U/ml, time-course", "value": "inhibited"}, {"measurement": "persistence of significant inhibition after thrombin addition", "setting": "[4]; [6]", "value": "up to 6 hours"}, {"measurement": "time of addition giving the highest level of activity", "setting": "[4]; [6]", "value": "either simultaneously or 1 hour after thrombin"}, {"measurement": "relative potency among analogues examined", "setting": "[4]; DNA synthesis", "value": "most potent of the analogues examined"}, {"measurement": "DNA synthesis in the presence of EGF or 10% FCS", "setting": "[4]; EGF 3 nM or 10% FCS, relative to thrombin, bFGF, lower FCS", "value": "inhibited to a significantly lesser extent"}, {"measurement": "FCS (1%)-stimulated DNA synthesis, 10 μM", "setting": "[4]; FCS 1%, 10 μM", "value": "inhibition was observed at 10 μM; also recorded: equivalent to 2-methoxyestradiol (10 μM)"}, {"measurement": "FCS (1%)-stimulated DNA synthesis, lower concentrations", "setting": "[4]; FCS 1%, lower concentrations", "value": "enhanced"}, {"measurement": "inhibition with FCS (10%)", "setting": "[4]; FCS 10%", "value": "significantly less inhibited"}, {"measurement": "inhibition at 3 µM", "setting": "[4]; Homo sapiens, 3 μM, thrombin 0.3 U/ml, read-out: inhibition of DNA synthesis, addition between 4 and 14 hours after thrombin", "value": "~20", "unit": "%"}, {"measurement": "activity at 10 µM", "setting": "[4]; Homo sapiens, thrombin 0.3 U/ml, 10 μM, read-out: response to thrombin ([3H]-thymidine), remaining", "value": "~10", "unit": "%"}, {"measurement": "concentration-response of enhancement of thrombin-stimulated DNA synthesis", "setting": "[4]; thrombin", "value": "bell-shaped concentration-response curve"}, {"measurement": "enhancement of thrombin-stimulated DNA synthesis, 10 μM", "setting": "[4]; thrombin 0.3 U/ml, 10 μM", "value": "level of enhancement declined at 10 μM"}, {"measurement": "thrombin-stimulated incorporation of [3H]-thymidine", "setting": "[4]; thrombin 0.3 U/ml, 0.3-10 μM, 30 min pretreatment", "value": "concentration-dependentreduction"}, {"measurement": "thrombin-stimulated DNA synthesis (analogues)", "setting": "[4]; thrombin 0.3 U/ml, up to 3 μM", "value": "enhanced thrombin-stimulated DNA synthesis"}, {"measurement": "superoxide anion response of macrophages, PMA", "setting": "[5]; PMA (100 nM)", "value": "unaffected"}, {"measurement": "superoxide anion response of macrophages, fMLP", "setting": "[5]; fMLP (100 nM)", "value": "reduced"}, {"measurement": "superoxide anion response of macrophages, zymosan", "setting": "[5]; zymosan (400 μg/ml)", "value": "reduced; also recorded: completely blocked"}]}
